# Measurements from US10975068B2, “6-aminopyridin-3-yl thiazoles as modulators of RORγT” (Janssen Pharmaceutica NV, priority 2016, dated 2021).
# Where two headings read alike, the source gives them in different places.
# Columns and labels:
# [1] = molecular target: human RORγt ligand binding domain (RORγt LBD) (Homo sapiens (Human), UniProt P51449); test: RORγt ThermoFluor® assay (thermal shift binding)
# Outline: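 His-tagged human RORγt LBD (0.065 mg/mL) with 60 μM 1,8-ANS in 100 mM Hepes pH 7.0, 10 mM NaCl, 2.5 mM GSH, 0.002% Tween-20 was heated at 1 °C/min.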
# full-length human RORγt = full-length human RORγt (Homo sapiens (Human), UniProt P51449); test: RORγt (full-length human) reporter assay, Conditions B or C; assay type: cell-based; conditions: for inhibition at 3 µM: at 3 μM compound concentration, read-out: RORγt (FL) Reporter Assay B or C, % inhibition; for RORγt (FL) Reporter Assay B or C, % inhibition (value marked *): marked *: footnote not given; for RORγt (FL) Reporter Assay B or C, % inhibition (value marked ***): marked ***: footnote not given
# Outline: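 HEK293T cells transiently co-transfected with GAL4-DBD–full-length human RORγt (nt 142-1635, NM_001001523.1) plus GAL4-firefly and CMV-Renilla luciferase reporters; compounds added 4-6 h post-transfection for 16-20 h in 1.3% FBS, 0.1% DMSO. Firefly signal normalized to DMSO and saturating reference compound, then to Renilla; IC50 from concentration plots.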
# [2] = read-out: ThermoFluor® Assay, Kd
# [3] = read-out: RORγt (FL) Reporter Assay B or C, IC50
# [4] = Conditions B or C, read-out: RORγt (FL) Reporter Assay B or C, IC50
# Chain of full-length human RORγt (P51449 other isoform, or with tags, fused parts or gaps): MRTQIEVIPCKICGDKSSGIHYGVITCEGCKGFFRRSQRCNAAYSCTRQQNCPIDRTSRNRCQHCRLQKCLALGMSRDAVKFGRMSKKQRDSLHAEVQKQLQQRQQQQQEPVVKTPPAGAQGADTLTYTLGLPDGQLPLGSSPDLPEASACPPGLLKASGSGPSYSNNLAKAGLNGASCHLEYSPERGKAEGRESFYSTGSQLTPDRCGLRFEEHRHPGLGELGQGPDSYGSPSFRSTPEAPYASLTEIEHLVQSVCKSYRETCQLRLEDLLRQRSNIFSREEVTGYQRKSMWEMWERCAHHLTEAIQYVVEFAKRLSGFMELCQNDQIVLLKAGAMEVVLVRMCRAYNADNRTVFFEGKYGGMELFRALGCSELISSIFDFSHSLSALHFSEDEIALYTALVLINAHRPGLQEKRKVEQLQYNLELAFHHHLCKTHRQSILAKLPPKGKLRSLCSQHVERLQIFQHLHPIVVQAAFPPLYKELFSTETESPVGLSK
# Chain of human RORγt ligand binding domain (RORγt LBD) (P51449 other isoform, or with tags, fused parts or gaps): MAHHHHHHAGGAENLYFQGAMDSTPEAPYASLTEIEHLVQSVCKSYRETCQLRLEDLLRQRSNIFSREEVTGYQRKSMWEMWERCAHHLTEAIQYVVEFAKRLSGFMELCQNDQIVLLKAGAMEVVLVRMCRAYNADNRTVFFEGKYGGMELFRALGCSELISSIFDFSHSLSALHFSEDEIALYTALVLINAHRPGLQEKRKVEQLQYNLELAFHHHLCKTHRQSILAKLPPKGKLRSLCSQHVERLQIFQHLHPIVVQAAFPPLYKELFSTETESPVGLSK
Compound,"Kd [1, 2] [µM]",inhibition at 3 µM (full-length human RORγt) [%],IC50 (full-length human RORγt; [3]) [µM],"RORγt (FL) Reporter Assay B or C, % inhibition (value marked *) (full-length human RORγt; Conditions B or C)",IC50 (full-length human RORγt; [4]) [µM],other results
CC[C@H](Nc1cc(C(F)(F)F)c(-c2sc(C(=O)NCC(C)(C)O)nc2C(=O)N2C3CCC2CC3)cn1)C1CC1 (stereo in doubt) [Example 130],–,–,–,–,–,"Kd ([1]; ThermoFluor® Assay, Kd (μM)): 0.0016 µM; RORγt (FL) Reporter Assay B or C, % inhibition (value marked ***) (full-length human RORγt; Conditions B or C): 98*** %; IC50 (full-length human RORγt; RORγt (FL) Reporter Assay B or C, IC50 (μM), Conditions B or C): 0.03 µM"
"C[C@H]1CC(F)(F)CN1C(=O)c1nc(C(=O)NCC(C)(C)O)sc1-c1cnc(NCC(C)(C)C)cc1C(F)(F)F [Example 85, (S)-4-(4,4-Difluoro-2-methylpyrrolidine-1-carbonyl)-N-(2-hydroxy-2-methylpropyl)-5-(6-(neopentylamino)-4-(trifluoromethyl)pyridin-3-yl)thiazole-2-carboxamide]",0.00053,–,–,–,0.027,"RORγt (FL) Reporter Assay B or C, % inhibition (value marked ***) (full-length human RORγt; Conditions B or C): 128*** %"
"C[C@H](Nc1cc(C(F)(F)F)c(-c2sc(C(=O)N[C@H](C)C(C)(C)O)nc2C(=O)N2CC(F)(F)C[C@@H]2C)cn1)C1CC1 [Example 203, 5-(6-(((S)-1-Cyclopropylethyl)amino)-4-(trifluoromethyl)pyridine-3-yl)-4-((S)-4,4-difluoro-2-methylpyrrolidine-1-carbonyl)-N—((R)-3-hydroxy-3-methylbutan-2-yl)thiazole-2-carboxamide]",0.0015,–,–,97* %,0.042,–
"C[C@H](NC(=O)c1nc(C(=O)N2CC(F)(F)C[C@@H]2C)c(-c2cnc(N[C@@H](C3CC3)C(F)(F)F)cc2C(F)F)s1)C(C)(C)O [Example 313, 5-(6-(((S)-1-Cyclopropyl-2,2,2-trifluoroethyl)amino)-4-(difluoromethyl)pyridin-3-yl)-4-((S)-4,4-difluoro-2-methylpyrrolidine-1-carbonyl)-N—((S)-3-hydroxy-3-methylbutan-2-yl)thiazole-2-carboxamide]",0.00074,106,0.036,–,–,–
"C[C@H](Nc1cc(C(F)(F)F)c(-c2sc(C(=O)NCC(C)(C)O)nc2C(=O)N2C3CCC2CC3)cn1)C1CCC1 (stereo in doubt) [Example 171, 4-((1s,4s)-7-Azabicyclo[2.2[1]heptane-7-carbonyl)-5-(6-(((S*)-1-cyclobutylethyl)amino)-4-(trifluoromethyl)pyridine-3-yl)-N-(2-hydroxy-2-methylpropyl)thiazole-2-carboxamide]",0.004,–,–,108* %,0.016,–
"C[C@@H](NC(=O)c1nc(C(=O)N2C3CCC2CC3)c(-c2cnc(N[C@@H](C3CC3)C(F)(F)F)cc2C(F)F)s1)C(C)(C)O [Example 316, 4-((1s,4s)-7-Azabicyclo[2.2.1]heptane-7-carbonyl)-5-(6-(((S)-1-cyclopropyl-2,2,2-trifluoroethyl)amino)-4-(difluoromethyl)pyridin-3-yl)-N—((R)-3-hydroxy-3-methylbutan-2-yl)thiazole-2-carboxamide]",0.0029,108,–,–,–,"IC50 (full-length human RORγt; RORγt (FL) Reporter Assay B or C, IC50): 0.032 µM"
C[C@H](Nc1cc(C(F)F)c(-c2sc(C(=O)NCC(C)(C)O)nc2C(=O)N2C3CCC2CC3)cn1)C(F)(F)F [Example 136],0.016,–,–,109* %,0.79,–
"C[C@H](Nc1cc(C(F)(F)F)c(-c2sc(C(=O)NCC(C)(C)O)nc2C(=O)N2CCC[C@@H]2C)cn1)C1CCC1 (relative stereo) [Example 175, 5-(6-(((S*)-1-Cyclobutylethyl)amino)-4-(trifluoromethyl)pyridine-3-yl)-N-(2-hydroxy-2-methylpropyl)-4-(((S)-2-methylpyrrolidine-1-carbonyl)thiazole-2-carboxamide]",0.0058,–,–,–,0.044,"RORγt (FL) Reporter Assay B or C, % inhibition (value marked ***) (full-length human RORγt; Conditions B or C): 119*** %"
"C[C@H](CO)NC(=O)c1nc(C(=O)N2CC(F)(F)C[C@@H]2C)c(-c2cnc(NC(C)(C)C)cc2C(F)F)s1 [Example 428, 5-[6-(tert-Butylamino)-4-(difluoromethyl)-3-pyridyl]-4-[(2S)-4,4-difluoro-2-methyl-pyrrolidine-1-carbonyl]-N-[(1R)-2-hydroxy-1-methyl-ethyl]thiazole-2-carboxamide]",0.001,113,0.017,–,–,–
"C[C@H]1CCCN1C(=O)c1nc(C(=O)N[C@H]2CCC[C@@H]2O)sc1-c1cnc(NC(C)(C)C)cc1C(F)F [Example 396, 5-[6-(tert-Butylamino)-4-(difluoromethyl)-3-pyridyl]-N-[(1S,2S)-2-hydroxycyclopentyl]-4-[(2S)-2-methylpyrrolidine-1-carbonyl]thiazole-2-carboxamide]",0.0011,96,0.021,–,–,–

# The remaining molecules from weak to strong by Kd [1, 2], led by results:
"Kd [1, 2] [µM]",inhibition at 3 µM (full-length human RORγt) [%],IC50 (full-length human RORγt; [3]) [µM],"RORγt (FL) Reporter Assay B or C, % inhibition (value marked *) (full-length human RORγt; Conditions B or C)",IC50 (full-length human RORγt; [4]) [µM],Compound,other results
0.047,107,0.3,–,–,"CC[C@H](Nc1cc(C(F)F)c(-c2sc(C(=O)NC3CN(C(C)=O)C3)nc2C(=O)N2CCC[C@@H]2C)cn1)C(F)(F)F [Example 382, N-(1-Acetylazetidin-3-yl)-5-[4-(difluoromethyl)-6-[[(1S)-1-(trifluoromethyl)propyl]amino]-3-pyridyl]-4-[(2S)-2-methylpyrrolidine-1-carbonyl]thiazole-2-carboxamide]",–
0.012,–,–,109* %,0.046,"C[C@H]1CCCN1C(=O)c1nc(C(=O)NCC(C)(C)O)sc1-c1cnc(N[C@H](C)C(F)(F)F)cc1C(F)(F)F [Example 54, N-(2-Hydroxy-2-methylpropyl)-4-((S)-2-methylpyrrolidine-1-carbonyl)-5-(4-(trifluoromethyl)-6-(((R)-1,1,1-trifluoropropan-2-yl)amino)pyridin-3-yl)thiazole-2-carboxamide]",–
0.0082,–,–,104* %,0.014,"CC[C@H](Nc1cc(C(F)F)c(-c2sc(C(=O)N[C@@H]3C[C@@H]3O)nc2C(=O)N2CCC[C@@H]2C)cn1)C(F)(F)F (relative stereo) [Example 211, 5-(4-(Difluoromethyl)-6-(((S)-1,1,1-trifluorobutan-2-yl)amino)pyridin-3-yl)-N-((1R*,2S*)-2-hydroxycyclopropyl)-4-((S)-2-methylpyrrolidine-1-carbonyl)thiazole-2-carboxamide]",–
0.0019,106,0.054,–,–,"C[C@H](Nc1cc(C(F)F)c(-c2sc(C(=O)N[C@@H]3CCC[C@H]3O)nc2C(=O)N2CCC[C@@H]2C)cn1)C(F)(F)F [Example 283, 5-(4-(Difluoromethyl)-6-(((S)-1,1,1-trifluoropropan-2-yl)amino)pyridin-3-yl)-N-((1R,2R)-2-hydroxycyclopentyl)-4-((S)-2-methylpyrrolidine-1-carbonyl)thiazole-2-carboxamide]",–
0.00043,–,–,85* %,0.033,"C[C@H](NC(=O)c1nc(C(=O)N2CC(F)(F)C[C@@H]2C)c(-c2cnc(NC3(C)CCC3)cc2C(F)(F)F)s1)C(C)(C)O [Example 195, 4-((S)-4,4-Difluoro-2-methylpyrrolidine-1-carbonyl)-N—((S)-3-hydroxy-3-methylbutan-2-yl)-5-(6-((1-methylcyclobutyl)amino)-4-(trifluoromethyl)pyridine-3-yl)thiazole-2-carboxamide]",–
